Measurements: patent publication US11590116B2 (THERAVANCE BIOPHARMA R&D IP, LLC, priority 2019, dated 2023)

How the values were obtained:
[1] = test system: TGF-β-stimulated SMAD3 phosphorylation in BEAS-2B cells; test: Cellular ALK5 potency assay, inhibition of TGF-β stimulated pSMAD3 formation in BEAS-2B cells; format: cell-based; settings: Homo sapiens; inhibition of TGF-β stimulated pSMAD3 formation, BEAS-2B cells; read-out: BEAS2B pIC50 (converted)
Method in brief: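 SMAD3 phosphorylation was measured by AlphaLISA after 30 min TGF-β stimulation (10 ng/mL final) of BEAS-2B cells preincubated 1 h with compound at 37 °C. Results given as pIC50.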

[2] = biological target: T1, recombinant human ALK5 (TGF-βR1) protein (Homo sapiens, UniProt P36897); test: Biochemical ALK5 (TGF-βR1) assay to measure pKi (LANCE Ultra ULight kinase assay); settings: apparent pKi from pIC50 by Cheng-Prusoff, read-out: ALK5 pKi (converted)
T1 construct: purchased Life Technologies PR9075A
T1 sequence (P36897 34-503): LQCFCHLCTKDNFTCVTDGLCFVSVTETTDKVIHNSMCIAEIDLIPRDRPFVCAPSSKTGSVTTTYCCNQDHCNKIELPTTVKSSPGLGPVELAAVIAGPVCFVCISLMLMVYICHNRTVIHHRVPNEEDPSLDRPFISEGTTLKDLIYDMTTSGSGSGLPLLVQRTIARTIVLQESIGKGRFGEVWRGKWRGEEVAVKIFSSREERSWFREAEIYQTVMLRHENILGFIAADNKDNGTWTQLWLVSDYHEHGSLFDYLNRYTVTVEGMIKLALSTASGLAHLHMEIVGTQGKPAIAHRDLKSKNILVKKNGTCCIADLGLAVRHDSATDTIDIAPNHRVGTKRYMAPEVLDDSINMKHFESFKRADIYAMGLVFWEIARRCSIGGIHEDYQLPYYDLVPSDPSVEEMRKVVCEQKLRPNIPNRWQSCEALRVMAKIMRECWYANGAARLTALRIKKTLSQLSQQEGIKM
Method in brief: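 Dose range 10 μM–25 pM; enzyme + compound 60 min RT; ATP added (5× stock 125 μM, 2 mM DTT); 60 min 37 °C; stop with EDTA + Eu anti-phospho-Topo IIα Thr1342 Ab; TR-FRET ex 320/340, em 665 nm. 4-param pIC50 → pKi (Cheng-Prusoff).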

SMILES	IC50 [1] [nM]	Ki [2] [nM]
Cc1cccc(-c2n[nH]cc2-c2ccc3ncc(Nc4ccc(N5CCN(C)CC5)cc4)cc3c2)n1 [Compound 664, N-(4-(4-methylpiperazin-1-yl)phenyl)-6-(3-(6-methylpyridin-2-yl)-1H-pyrazol-4-yl)quinolin-3-amine]	25.1 to 158	0.0398 to 0.316
CC(=O)N[C@H]1CC=C(c2cnc3ccc(-c4nc[nH]c4-c4cccc(C)n4)cc3c2)CC1 [Compound 691, N-[(1R)-4-[6-[5-(6-methyl-2-pyridyl)-1H-imidazol-4-yl]-3-quinolyl]cyclohex-3-en-1-yl]acetamide]	< 20	< 0.0316
Cc1cccc(-c2[nH]cnc2-c2ccc3ncc(C4=CCNC4)cc3n2)n1 [Compound 410, 7-(2,5-dihydro-1H-pyrrol-3-yl)-2-[5-(6-methyl-2-pyridyl)-1H-imidazol-4-yl]-1,5-naphthyridine]	25.1 to 158	0.0398 to 0.316
Cc1cccc(-c2n[nH]cc2-c2ccc3ncc(Nc4ccc(N5CCN(C)CC5)cn4)cc3c2)n1 [Compound 666, N-[5-(4-methylpiperazin-1-yl)-2-pyridyl]-6-[3-(6-methyl-2-pyridyl)-1H-pyrazol-4-yl]quinolin-3-amine]	25.1 to 158	0.0398 to 0.316
Cc1cccc(-c2[nH]cnc2-c2ccc3ncc(NC(=O)C4CN5CCN4CC5)cc3c2)n1 (centres unmarked) [Compound 406, N-[6-[5-(6-methyl-2-pyridyl)-1H-imidazol-4-yl]-3-quinolyl]-1,4-diazabicyclo[2.2.2]octane-2-carboxamide]	200 to 1260	0.0398 to 0.316
CNCc1c(-c2cn[nH]c2)cnc2ccc(-c3c[nH]nc3-c3cccc(C)n3)cc12 [Compound 471, N-methyl-1-[6-[3-(6-methyl-2-pyridyl)-1H-pyrazol-4-yl]-3-(1H-pyrazol-4-yl)-4-quinolyl]methanamine]	25.1 to 158	0.0398 to 0.316
Cc1cccc(-c2n[nH]cc2-c2ccc3ncc(-c4cncc(N)n4)cc3n2)n1 [Compound 235, 6-[6-[3-(6-methyl-2-pyridyl)-1H-pyrazol-4-yl]-1,5-naphthyridin-3-yl]pyrazin-2-amine]	25.1 to 158	0.0398 to 0.316
Cc1cccc(-c2n[nH]cc2-c2ccc3nccc(N4CCC(N5CCN(C)CC5)CC4)c3n2)n1 [Compound 845, 8-[4-(4-methylpiperazin-1-yl)-1-piperidyl]-2-[3-(6-methyl-2-pyridyl)-1H-pyrazol-4-yl]-1,5-naphthyridine]	200 to 1260	0.398 to 3.16
Cc1cccc(-c2[nH]cnc2-c2ccc3ncc(C(=O)OCCCN4CCCC4)cc3c2)n1 [Compound 738, 3-pyrrolidin-1-ylpropyl 6-[5-(6-methyl-2-pyridyl)-1H-imidazol-4-yl]quinoline-3-carboxylate]	25.1 to 158	0.0398 to 0.316
Cc1cccc(-c2n[nH]cc2-c2ccc3ncc(-c4ccc(O)nc4)cc3n2)n1 [Compound 374, 5-[6-[3-(6-methyl-2-pyridyl)-1H-pyrazol-4-yl]-1,5-naphthyridin-3-yl]pyridin-2-ol]	25.1 to 158	< 0.0316
Cc1cccc(-c2[nH]cnc2-c2ccc3ncc(C4=CC[C@@H](NC(=O)[C@@H]5CCCN5)CC4)cc3c2)n1 [Compound 775, (2S)-N-[(1S)-4-[6-[5-(6-methyl-2-pyridyl)-1H-imidazol-4-yl]-3-quinolyl]cyclohex-3-en-1-yl]pyrrolidine-2-carboxamide]	25.1 to 158	0.0398 to 0.316
Cc1cccc(-c2n[nH]cc2-c2ccc3ncc(NC(=O)CCCN4CCN(C(C)C)CC4)cc3n2)n1 [Compound 99, 4-(4-isopropylpiperazin-1-yl)-N-[6-[3-(6-methyl-2-pyridyl)-1H-pyrazol-4-yl]-1,5-naphthyridin-3-yl]butanamide]	25.1 to 158	0.0398 to 0.316
Cc1cccc(-c2[nH]cnc2-c2ccc3ncc(-c4ccc(C(=O)O[C@@H]5CCNC5)cn4)cc3c2)n1 [Compound 1111, [(3R)-pyrrolidin-3-yl] 6-[6-[5-(6-methyl-2-pyridyl)-1H-imidazol-4-yl]-3-quinolyl]pyridine-3-carboxylate]	25.1 to 158	< 0.0316
Cc1cccc(-c2[nH]cnc2-c2ccc3ncc(-c4csc(C(=O)O[C@H]5CCNC5)n4)cc3c2)n1 [Compound 1024, [(3S)-pyrrolidin-3-yl] 4-[6-[5-(6-methyl-2-pyridyl)-1H-imidazol-4-yl]-3-quinolyl]thiazole-2-carboxylate]	25.1 to 158	0.0398 to 0.316
CNCc1cncc(-c2cnc3ccc(-c4c[nH]nc4-c4cccc(C)n4)nc3c2)c1 [Compound 214, N-methyl-1-[5-[6-[3-(6-methyl-2-pyridyl)-1H-pyrazol-4-yl]-1,5-naphthyridin-3-yl]-3-pyridyl]methanamine]	25.1 to 158	0.0398 to 0.316
CNCCn1cc(-c2ccnc3ccc(-c4c[nH]nc4-c4cccc(C)n4)cc23)cn1 [Compound 865, N-methyl-2-[4-[6-[3-(6-methyl-2-pyridyl)-1H-pyrazol-4-yl]-4-quinolyl]pyrazol-1-yl]ethanamine]	25.1 to 158	0.0398 to 0.316
Cc1cccc(-c2[nH]cnc2-c2ccc3ncc(-c4ccc(C(=O)OCCN5CCNCC5)cn4)cc3c2)n1 [Compound 1025, 2-piperazin-1-ylethyl 6-[6-[5-(6-methyl-2-pyridyl)-1H-imidazol-4-yl]-3-quinolyl]pyridine-3-carboxylate]	25.1 to 158	0.0398 to 0.316
Cc1cccc(-c2[nH]cnc2-c2ccc3ncc(-c4cnn(C5CNC5)c4)cc3c2)n1 [Compound 434, 3-[1-(azetidin-3-yl)pyrazol-4-yl]-6-[5-(6-methyl-2-pyridyl)-1H-imidazol-4-yl]quinoline]	25.1 to 158	< 0.0316
Cc1cccc(-c2[nH]cnc2-c2ccc3ncc(N4CCNC(CC(=O)OCC5CNC5)C4)cc3c2)n1 (centres unmarked) [Compound 491, azetidin-3-ylmethyl 2-[4-[6-[5-(6-methyl-2-pyridyl)-1H-imidazol-4-yl]-3-quinolyl]piperazin-2-yl]acetate]	200 to 1260	0.0398 to 0.316
Cc1cccc(-c2[nH]cnc2-c2ccc3ncc(-c4ccnc(C(=O)O[C@H]5CCNC5)c4)cc3c2)n1 [Compound 1058, [(3S)-pyrrolidin-3-yl] 4-[6-[5-(6-methyl-2-pyridyl)-1H-imidazol-4-yl]-3-quinolyl]pyridine-2-carboxylate]	200 to 1260	0.0398 to 0.316
Cc1cccc(-c2n[nH]cc2-c2ccc3nccc(NC(=O)CCN4CCN(C(C)C)CC4)c3n2)n1 [Compound 843, 3-(4-isopropylpiperazin-1-yl)-N-[6-[3-(6-methyl-2-pyridyl)-1H-pyrazol-4-yl]-1,5-naphthyridin-4-yl]propanamide]	25.1 to 158	0.398 to 3.16
Cc1cccc(-c2n[nH]cc2-c2ccc3nccc(CN(C)C)c3n2)n1 [Compound 830, N,N-dimethyl-1-[6-[3-(6-methyl-2-pyridyl)-1H-pyrazol-4-yl]-1,5-naphthyridin-4-yl]methanamine]	25.1 to 158	3.98 to 31.6
Cc1cccc(-c2n[nH]cc2-c2ccc3ncc(-c4cccnc4)cc3n2)n1 [Compound 595, 2-[3-(6-methyl-2-pyridyl)-1H-pyrazol-4-yl]-7-(3-pyridyl)-1,5-naphthyridine]	< 20	< 0.0316
Cc1cccc(-c2[nH]cnc2-c2ccc3ncc(-c4csc(C(=O)O[C@H]5CCNC5)c4)cc3c2)n1 [Compound 754, [(3S)-pyrrolidin-3-yl] 4-[6-[5-(6-methyl-2-pyridyl)-1H-imidazol-4-yl]-3-quinolyl]thiophene-2-carboxylate]	25.1 to 158	0.0398 to 0.316
Cc1cccc(-c2n[nH]cc2-c2ccc3nccc(N4CCNCC4)c3n2)n1 [Compound 856, 2-[3-(6-methyl-2-pyridyl)-1H-pyrazol-4-yl]-8-piperazin-1-yl-1,5-naphthyridine]	25.1 to 158	0.0398 to 0.316
Cc1nc(-c2n[nH]cc2-c2ccc3ncc(-c4ncc5n4CCNC5)cc3n2)ccc1F [Compound 39, 2-[3-(5-fluoro-6-methyl-2-pyridyl)-1H-pyrazol-4-yl]-7-(5,6,7,8-tetrahydroimidazo[1,5-a]pyrazin-3-yl)-1,5-naphthyridine]	200 to 1260	0.398 to 3.16
Cc1cccc(-c2nc3ccccn3c2-c2ccc3ncc(NCCN4CCN(C(C)C)CC4)cc3c2)n1 [Compound 293, N-(2-(4-isopropylpiperazin-1-yl)ethyl)-6-(2-(6-methylpyridin-2-yl)imidazo[1,2-a]pyridin-3-yl)quinolin-3-amine]	25.1 to 158	0.0398 to 0.316
Cc1nc(-c2[nH]cnc2-c2ccc3ncc(-c4cnn(C5CCCNC5)c4)cc3n2)ccc1F (centres unmarked) [Compound 413, 2-[5-(5-fluoro-6-methyl-2-pyridyl)-1H-imidazol-4-yl]-7-[1-(3-piperidyl)pyrazol-4-yl]-1,5-naphthyridine]	25.1 to 158	0.0398 to 0.316
